From ChEMBL document CHEMBL1150252, “Heteroaromatic ester inhibitors of hepatitis A virus 3C proteinase: Evaluation of mode of action” (Bioorg Med Chem, 2008)
Where “and” joins values, the source holds several entries; their conditions need not be identical. Identical values can stand only once.

Experiments:
Hepatovirus A [1] = assay: Inhibition of hepatitis A virus 3C proteinase at 10 uM by microplate assay
Hepatovirus A [2] = assay: Inhibition of hepatitis A virus 3C proteinase at 1 uM by microplate assay
[3] = Inhibition of hepatitis A virus 3C proteinase by microplate assay; parameters: species or system Hepatovirus A
Hepatovirus A [4] = assay: Inhibition of hepatitis A virus 3C proteinase at 0.25 uM by microplate assay
Hepatovirus A [5] = assay: Activity of hepatitis A virus 3C proteinase assessed as compound hydrolysis by HPLC
Hepatovirus A [6] = assay: Ratio of Kcat to Km of hepatitis A virus 3C proteinase
Replicase polyprotein 1a = Replicase polyprotein 1a (Severe acute respiratory syndrome-related coronavirus, UniProt P0C6U8); assay: Inhibition of SARS coronavirus 3CL proteinase
[7] = tested on: O=C(Oc1cncc(Br)c1)c1ccco1; assay: Activity of SARS coronavirus 3CL proteinase assessed as compound hydrolysis by HPLC; conditions: Severe acute respiratory syndrome-related coronavirus
[8] = tested on: O=C(Oc1cncc(Br)c1)c1ccco1; assay: Ratio of Kcat to Km of SARS coronavirus 3CL proteinase; conditions: Severe acute respiratory syndrome-related coronavirus

Compound | inhibition (Hepatovirus A [1]) | inhibition (Hepatovirus A [2]) | other results
Cc1cccc(C(=O)Oc2cncc(Cl)c2)c1 | 63% | 32% | –
COc1cccc(C(=O)Oc2cncc(Cl)c2)c1 | > 90% | 50% | –
Cc1ccc(C(=O)Oc2cncc(Cl)c2)cc1 | 77% | 70% | –
O=C(Oc1cncc(Br)c1)c1ccco1 | – | > 90% | IC50 [3]: 53 nM; inhibition (Hepatovirus A [4]): 87%; Km (Hepatovirus A [5]): 0.12 µM; kcat (Hepatovirus A [5]): 119 ×10⁻⁵ /s; kcat/Km (Hepatovirus A [6]): 10 ×10³ /M/s
O=C(Nc1cccnc1Cl)c1cccs1 | < 10% | – | –
O=C(Oc1ccc(Cl)nc1)c1cccs1 | 25% | – | –
O=C(Nc1cccnc1)c1cccs1 | < 10% | – | –
O=C(Oc1cncc(Cl)c1)c1cc(F)c(Cl)nc1Cl | 44% | 19% | –
COc1ccc(C(=O)Oc2cncc(Cl)c2)cc1OC | 59% | – | –
O=C(Oc1cncc(Cl)c1)c1ccc(-c2ccccc2[N+](=O)[O-])o1 | 37% | – | –
O=C(Oc1cncc(Cl)c1)c1ccc2c(c1)OCO2 | > 90% | 11% | –
Cc1ccc(OC(=O)c2cccs2)nc1 | 12% | – | –
O=C(Oc1cncc(Cl)c1)c1ccc2[nH]cnc2c1 | 82% | 75% | inhibition (Hepatovirus A [4]): 32%
Cc1ccc(OC(=O)c2cccs2)cn1 | 23% | – | –
O=C(Oc1cncc(Cl)c1)c1ccccc1Cl | > 90% | 67% | inhibition (Hepatovirus A [4]): 23%
COc1ccccc1C(=O)Oc1cncc(Cl)c1 | 85% | 57% | inhibition (Hepatovirus A [4]): < 10%
O=C(Oc1cncc(Cl)c1)c1cccc(Cl)c1 | 29% | 50% | –
O=C(Oc1cncc(Cl)c1)c1cccs1 | 93% and > 90% | > 90% | IC50 (Replicase polyprotein 1a): 500 nM; IC50 [3]: 470 nM; inhibition (Hepatovirus A [4]): 50%
O=C(Oc1cncc(Cl)c1)c1ccc[nH]1 | 92% | < 10% | inhibition (Hepatovirus A [4]): < 10%
O=S(=O)(Nc1cccnc1)c1cccs1 | < 10% | – | –
Clc1cncc(OCc2ccco2)c1 | < 10% | – | –
O=C(Nc1ccc(Cl)cn1)c1cccs1 | < 10% | – | –
O=C(Oc1cccnc1Cl)c1cccs1 | 11% | – | –
Cc1onc(-c2ccccc2)c1C(=O)Oc1cncc(Cl)c1 | < 10% | – | inhibition (Hepatovirus A [4]): < 10%
O=C(Nc1ccc(F)cn1)c1cccs1 | < 10% | – | –
O=C(Oc1cccnc1)c1cccs1 | 83% | 21% | –
Cc1ccc(OC(=O)c2cccs2)c([N+](=O)[O-])n1 | 14% | – | –

Compound | inhibition (Hepatovirus A [1]) | inhibition (Hepatovirus A [2]) | other results
O=C(Oc1cncc(Cl)c1)c1cnc2cc(C(F)(F)F)ccc2c1O | < 10% | – | –
O=C(Oc1cncc(Cl)c1)c1cnccn1 | 22% | – | –
O=C(Oc1cncc(Cl)c1)c1cc2ccccc2o1 | > 90% | > 90% | inhibition (Hepatovirus A [4]): < 10%
O=C(/C=C/c1ccco1)Oc1cncc(Cl)c1 | 83% | > 90% | IC50 [3]: 140 nM; inhibition (Hepatovirus A [4]): 43%; Km (Hepatovirus A [5]): 0.18 µM; kcat (Hepatovirus A [5]): 25 ×10⁻⁵ /s; kcat/Km (Hepatovirus A [6]): 1.4 ×10³ /M/s
Replicase polyprotein 1a (Severe acute respiratory syndrome-related coronavirus) (from UniProt P0C6U8) | – | – | Km [7]: 0.026 µM; kcat [7]: 17 ×10⁻⁵ /s; kcat/Km [8]: 7 ×10³ /M/s
O=C(Oc1cncc(Cl)c1)c1ccncc1 | 37% | 34% | –
Cc1cccc(OC(=O)c2cccs2)n1 | 91% | < 10% | –
O=C(Oc1cncc(Cl)c1)c1c[nH]cn1 | 33% | 47% | inhibition (Hepatovirus A [4]): 34%
O=C(Nc1ccccn1)c1cccs1 | < 10% | – | –
O=C(Oc1cncc(Cl)c1)c1cc([N+](=O)[O-])[nH]n1 | 54% | 69% | IC50 [3]: 250 nM; inhibition (Hepatovirus A [4]): 53%
O=C(/C=C/c1ccccc1)Oc1cncc(Cl)c1 | > 90% | 53% | –
O=C(Oc1cncc(Cl)c1)c1ccc2[nH]ccc2c1 | 87% | 60% | inhibition (Hepatovirus A [4]): 22%
O=C(Oc1cncc(Cl)c1)c1cccc2ccccc12 | > 90% | 30% | –
O=C(Oc1cncc(Cl)c1)c1ccccc1[N+](=O)[O-] | > 90% | 24% | –
O=C(Oc1cncc(Cl)c1)c1cc2ccccc2s1 | > 90% | 47% | –
O=C(Oc1cccc(Cl)n1)c1cccs1 | 16% | – | –
CN(C)c1ccc(C(=O)Oc2cncc(Cl)c2)cc1 | > 90% | > 90% | inhibition (Hepatovirus A [4]): 20%
Cc1ccc(C(=O)Oc2cncc(Cl)c2)s1 | > 90% | – | inhibition (Hepatovirus A [4]): 24%
O=C(Oc1cncc(Cl)c1)c1ccc2ccccc2c1 | 23% | 35% | –
O=C(Oc1cncc(Cl)c1)c1ccoc1 | > 90% | – | –
Cc1ncccc1OC(=O)c1cccs1 | < 10% | < 10% | –
COc1ccc(C(=O)Oc2cncc(Cl)c2)cc1 | 85% | – | –
Cc1ccsc1C(=O)Oc1cncc(Cl)c1 | < 10% | – | –
O=C(Oc1cncc(Cl)c1)c1ccc(Cl)cc1O | > 90% | 59% | inhibition (Hepatovirus A [4]): 10%
O=C(Oc1cncc(Cl)c1)c1ccc(-c2cc(C(F)(F)F)ccc2Cl)o1 | 76% | 36% | –
O=C(Oc1cncc(Cl)c1)c1cc2ccccc2oc1=O | 75% | – | –
O=C(Oc1cncc(Cl)c1)c1ccccc1 | > 90% | > 90% | inhibition (Hepatovirus A [4]): < 10%

Compound | inhibition (Hepatovirus A [1]) | inhibition (Hepatovirus A [2]) | other results
O=C(Oc1cncc(Cl)c1)c1ccc(F)cc1 | > 90% | 45% | –
O=C(Oc1ccco1)c1cccnc1 | > 90% | – | –
O=C(Oc1cccc(Cl)c1)c1ccco1 | 11% | – | –
O=C(Oc1cncc(Cl)c1)c1ccc(-c2ccc(Cl)cc2)o1 | > 90% | – | inhibition (Hepatovirus A [4]): 36%
O=C(Oc1ccncc1)c1cccs1 | < 10% | 10% | –
O=C(Oc1cncc(Cl)c1)c1ccc2[nH]nnc2c1 | > 90% | – | –
CNc1ccc(C(=O)Oc2cncc(Cl)c2)cc1 | 82% | < 10% | –
O=C(Oc1cncc(Cl)c1)C1CCCCC1 | 81% | 32% | –
O=C(Cc1cccnc1)c1cccs1 | 10% | – | –
O=C(Oc1cncc(Cl)c1)c1cc2ccccc2[nH]1 | 80% | 58% | –
O=C(Oc1cncc(Cl)c1)c1ccc(-c2ccccc2C(F)(F)F)o1 | > 90% | – | inhibition (Hepatovirus A [4]): < 10%
NS(=O)(=O)c1ccc(C(=O)Oc2cncc(Cl)c2)cc1 | 64% | 57% | inhibition (Hepatovirus A [4]): < 10%
Nc1ccc(C(=O)Oc2cncc(Cl)c2)cc1 | > 90% | 26% | –
O=C(Oc1cncc(Cl)c1)c1c[nH]c2ccccc12 | 13% | – | –
O=C(Oc1cncc(Cl)c1)c1ccc(Br)o1 | > 90% | – | IC50 [3]: 1200 nM; inhibition (Hepatovirus A [4]): 54%
CCN(CC)c1ccc(C(=O)Oc2cncc(Cl)c2)cc1 | 64% | – | –
O=C(Oc1cncc(Cl)c1)c1ccc(-c2ccc(Cl)cc2[N+](=O)[O-])o1 | 40% | – | –
O=C(OCc1cncc(Br)c1)c1ccco1 | 67% | – | –
O=C(Nc1ccncc1)c1cccs1 | < 10% | – | –
O=C(Oc1cncc(Cl)c1)c1ccc(-c2ccccc2)cc1 | 39% | 23% | –
O=C(Oc1ccccn1)c1cccs1 | 89% | 8% | –
O=C(Oc1cncc(Cl)c1)c1cn[nH]c1 | 56% | 21% | –
O=C(Oc1cncc(Cl)c1)c1cscn1 | > 90% | 85% | inhibition (Hepatovirus A [4]): 37%
Cc1ccccc1C(=O)Oc1cncc(Cl)c1 | 82% | – | –
O=C(Oc1cncc(Cl)c1)c1ccco1 | > 90% | > 90% | IC50 [3]: 338 nM; inhibition (Hepatovirus A [4]): 49%; Km (Hepatovirus A [5]): 0.24 µM; kcat (Hepatovirus A [5]): 110 ×10⁻⁵ /s; kcat/Km (Hepatovirus A [6]): 4.6 ×10³ /M/s
O=C(Oc1cncc(Cl)c1)c1ccc2ncsc2c1 | 74% | 54% | inhibition (Hepatovirus A [4]): 27%
